From patent US11414422B2, “Substituted pyrido[4,3-b]indoles and azepino[4,5-b]indoles as inhibitors of cGAS” (The Rockefeller University, priority 2018, dated 2022)
pIC50: −log10 of the molar value.

biological target: T1, h-cGAS (Homo sapiens, UniProt Q8N884); assay: cGAS biochemical assay, RapidFire 365 mass spectrometry (RF-MS); conditions: full-length h-cGAS 100 nM, dsDNA 25 nM, ATP and GTP 100 μM, 7 h at RT
T1 construct: The final concentration of full-length h-cGAS, dsDNA, ATP, and GTP were 100 nM
T1 sequence (Q8N884 whole entry): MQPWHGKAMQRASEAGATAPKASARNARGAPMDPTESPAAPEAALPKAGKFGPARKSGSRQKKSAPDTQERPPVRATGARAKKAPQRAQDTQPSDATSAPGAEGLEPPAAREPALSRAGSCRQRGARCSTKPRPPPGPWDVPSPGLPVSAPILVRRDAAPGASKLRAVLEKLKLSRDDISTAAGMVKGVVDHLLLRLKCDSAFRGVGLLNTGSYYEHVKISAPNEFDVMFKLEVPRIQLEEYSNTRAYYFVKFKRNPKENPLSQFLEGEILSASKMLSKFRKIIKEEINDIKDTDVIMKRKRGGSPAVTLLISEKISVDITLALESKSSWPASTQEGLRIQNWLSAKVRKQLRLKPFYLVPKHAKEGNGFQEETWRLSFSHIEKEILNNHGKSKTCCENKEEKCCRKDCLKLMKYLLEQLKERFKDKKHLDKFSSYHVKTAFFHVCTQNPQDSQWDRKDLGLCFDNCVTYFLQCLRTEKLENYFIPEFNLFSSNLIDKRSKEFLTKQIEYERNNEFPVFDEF

pIC50	Compound
5.23	COCC(=O)N1CCc2[nH]c3c(Cl)cccc3c2C1 [TDI-005323]
5.49	COCC(=O)N1CCc2[nH]c3c(Cl)ccc(Cl)c3c2C1 [TDI-005325]
5.82	CCOCC(=O)N1CCc2[nH]c3c(Cl)c(Cl)ccc3c2C1 [TDI-005716]
5.48	COCCOCC(=O)N1CCc2[nH]c3c(Cl)c(Cl)ccc3c2C1 [TDI-005719]
5.51	O=C(C1CCCO1)N1CCc2[nH]c3c(Cl)c(Cl)ccc3c2C1 (centres unmarked) [TDI-005745]
6.69	COCC(=O)N1CCc2[nH]c3c(Br)c(Cl)ccc3c2C1 [TDI-005776]
4.61	COCC(=O)N1CCc2[nH]c3c(OC)c(Cl)ccc3c2C1 [TDI-005777]
6.70	COCC(=O)N1CCc2[nH]c3c(Cl)c(Br)ccc3c2C1 [TDI-005854]
5.11	COCC(=O)N1CCc2[nH]c3c(Cl)c(C#N)ccc3c2C1 [TDI-006171]
6.24	COCC(=O)N1CCc2[nH]c3c(C#N)c(Cl)ccc3c2C1 [TDI-006182]
6.33	O=C(CO)N1CCc2[nH]c3c(Cl)c(Cl)ccc3c2CC1 [TDI-006183]
6.85	O=C(CO)N1CCc2[nH]c3c(Br)c(Cl)ccc3c2C1 [TDI-006261]
5.12	Cc1ccc2c3c([nH]c2c1C)CCN(C(=O)CO)C3 [TDI-006339]
6.89	O=C(CO)N1CCc2[nH]c3c(F)c(Cl)ccc3c2C1 [TDI-006340]
7.37	O=C(CO)N1CCc2[nH]c3c(Cl)c(Br)ccc3c2C1 [TDI-006354]
6.22	Cc1ccc2c3c([nH]c2c1Cl)CCN(C(=O)CO)C3 [TDI-006358]
6.36	O=C(CO)N1CCc2[nH]c3c(Cl)c(F)ccc3c2C1 [TDI-006359]

pIC50	Compound
6.49	Cc1c(Cl)ccc2c3c([nH]c12)CCN(C(=O)CO)C3 [TDI-006360]
6.70	Cn1c2c(c3ccc(Cl)c(Cl)c31)CN(C(=O)CO)CC2 [TDI-006366]
7.51	COc1cc2c3c([nH]c2c(Cl)c1Cl)CCN(C(=O)CO)C3 [TDI-006528]
7.41	O=C(CO)N1CCc2[nH]c3c(F)c(Br)ccc3c2C1 [TDI-006529, 1-(7-Bromo-6-fluoro-1,3,4,5-tetrahydro-2H-pyrido[4,3-b]indol-2-yl)-2-hydroxyethan-1-one]
7.31	COc1cc(Cl)c(Cl)c2[nH]c3c(c12)CN(C(=O)CO)CC3 [TDI-006622]
4.71	C=Cc1ccc2c3c([nH]c2c1F)CCN(C(=O)CO)C3 [TDI-006923]
6.40	N#Cc1c(Cl)ccc2c3c([nH]c12)CCN(C(=O)CO)C3 [TDI-006931]
< 4.60	N#Cc1ccc2c3c([nH]c2c1C#N)CCN(C(=O)CO)C3 [TDI-006932]
6.23	O=C(CO)N1CCc2[nH]c3c(F)c(Cl)c(Br)cc3c2C1 [TDI-007362]
5.84	C#Cc1ccc2c3c([nH]c2c1F)CCN(C(=O)CO)C3 [TDI-007433]
7.27	O=C(CO)N1CCc2[nH]c3c(Cl)c(Cl)cc(-c4ccn[nH]4)c3c2C1 [TDI-007457]
5.91	N#Cc1cc2c3c([nH]c2c(F)c1Cl)CCN(C(=O)CO)C3 [TDI-007542]
6.78	O=C(CO)N1CCc2[nH]c3c(F)c(Cl)c(F)cc3c2C1 [TDI-007544]
6.52	CC1CN(C(=O)CO)Cc2c1[nH]c1c(Cl)c(Cl)ccc21 (centres unmarked) [TDI-007553]
5.17	O=C(CO)N1CCc2[nH]c3c(F)c(Cl)c(N4CCC4)cc3c2C1 [TDI-007560]
6.76	C[C@H]1CN(C(=O)CO)Cc2c1[nH]c1c(Cl)c(Cl)ccc21 [TDI-007575]

Compound	pIC50
COCC(=O)N1CCc2[nH]c3c(Cl)cc(Cl)cc3c2C1 [TDI-004576]	5.51
COCC(=O)N1CCc2c(c3cc(Cl)cc(Cl)c3n2C)C1 [TDI-004581]	5.62
COCC(=O)N1CCc2c(c3cc(Cl)cc(Cl)c3n2CC(F)(F)F)C1 [TDI-005021]	4.86
COCC(=O)N1CCc2[nH]c3cc(Cl)ccc3c2C1 [TDI-005324]	5.40
COCC(=O)N1CCc2[nH]c3cc(Br)ccc3c2C1 [TDI-005855]	5.76
